Where a SMILES comes first, the peptide text is derived from it. Bridges are numbered along the chain shown (N, C = ends).
What was measured:
[1] = target: T1, C1a receptor (C1a-type calcitonin receptor) (Rattus norvegicus, UniProt P32214); experiment: C1a/293 competitive binding, displacement of [125I]-human calcitonin (Example C); conditions: HEK293 plasma membranes (C1a/293), [125I]-human calcitonin 20 pM
T1 construct: expressed in transfected cells
T1 sequence (P32214 25-479 isoform P32214-2 limits assumed): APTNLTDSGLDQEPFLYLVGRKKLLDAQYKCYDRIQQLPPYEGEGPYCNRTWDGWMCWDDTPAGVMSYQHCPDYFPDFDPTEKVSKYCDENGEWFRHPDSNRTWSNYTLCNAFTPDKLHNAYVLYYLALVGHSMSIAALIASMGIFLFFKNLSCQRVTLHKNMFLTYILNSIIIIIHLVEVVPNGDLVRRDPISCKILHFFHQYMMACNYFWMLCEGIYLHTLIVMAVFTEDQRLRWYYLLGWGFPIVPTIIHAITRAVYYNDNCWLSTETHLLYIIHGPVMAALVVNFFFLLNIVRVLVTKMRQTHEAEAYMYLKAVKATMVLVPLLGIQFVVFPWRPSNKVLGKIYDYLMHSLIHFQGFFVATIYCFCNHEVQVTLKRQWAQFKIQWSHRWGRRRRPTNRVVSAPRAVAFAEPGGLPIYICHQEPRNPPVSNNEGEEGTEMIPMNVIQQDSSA
Method: Peptide compounds of the present invention may be evaluated for binding to the C1a receptor using the procedures described in Example C. The C1a receptor is the predominant mammalian calcitonin receptor subtype. C1a pcDNA construction and transfection were carried out as previously described (Albrandt et al. 1993, FEBS Letters, 325:225-232). HEK293 cell lines showing stable expression of the rat C1a-type calcitonin receptor (C1a/293) or the human C1a-type calcitonin receptor (1154/293) were selected by G418 resistance and limiting dilution culture methods. Plasma membranes were collected from homogenized HEK293 cells and used in the receptor binding assay. Individual test peptides at concentrations spanning 6 log units starting at around 10^-6 M were examined for their ability to displace [^125 I]-human calcitonin from the plasma membrane preparation using a 96-well microtiter plate format and scintillation counting with a Wallac LKB Beta plate counter. Competitive binding curves were constructed. Non-specific binding was measured in the presence of 100 nM calcitonin. Peptide potencies (IC50 's for competitive binding) were calculated by non-linear regression using Prism™ (version 2.01, GraphPAD Software, San Diego, Calif.).
C1a/293 Competitive Binding Studies:
Compounds were evaluated for competition in binding to the C1a receptor as follows:
(§1) Reference peptides used in these studies were purchased from Bachem (Torrance, Calif.). All other chemicals were of the highest commercial grade. [^35 S]-GTPγS was purchased from NEN Life Science Products, Inc., Pittsburgh, Pa. [^125 I]-human calcitonin was purchased from Amersham Pharmacia Biotech, Inc., Piscataway, N.J.
(§2) Methods for C1a pcDNA construction and transfection have been previously described (Albrandt, et al. 1993). HEK293 cell lines stably expressing the rat C1a-type calcitonin receptor (C1a/293) or the human C1a-type calcitonin receptor (1154/293) were selected by G418 resistance and limiting dilution culture methods.
(§3) Confluent cells were detached from tissue culture flasks by incubation with 5 mM EDTA in PBS. Cells were homogenized in ice-cold 20 mM HEPES, pH 7.4 with a Polytron homogenizer. Plasma membranes were collected using three cycles of washing in fresh buffer followed by centrifugation for 15 minutes at 48,000×g. The final membrane pellet was resuspended in 20 mM HEPES buffer containing 0.2 mM phenylmethylsulfonyl fluoride (PMSF) and stored at -70° C.
Assay buffer contained 5 μg/mL bestatin, 1 μg/mL phosphoramidon, 1 mg/mL bovine serum albumin (fraction V), 1 mg/mL bacitracin, 1 mM MgCl2, and 20 mM HEPES, pH 7.4. Membranes (2-5 μg membrane protein/well), [^125 I]-human calcitonin (20 pM), and peptides were combined in 200 μL buffer in 96-well microtiter plates. After a 60 minute incubation at room temperature, well contents were harvested onto polyethyleneimine-treated GF/B glass fiber pads using a Tomtec Mach II plate harvestor (Hamden, Conn.). Dried pads were combined with scintillant and counted on a Wallac LKB Beta Plate scintillation counter (Gaithersburg, Md.). For competitive binding curves, samples were run in duplicate over a 6 log concentration range starting at 10^-6 or 10^-7 M. Non-specific binding was measured in the presence of 100 nM human calcitonin.

[2] = target: T1, C1a receptor (C1a-type calcitonin receptor); experiment: biochemical; conditions: HEK293 plasma membranes, [35S]-GTPγS 200 pM; read-out: ED50 (nM) Example B (C1a GTPγS)
Excerpt: Peptide compounds of the present invention may be evaluated for agonist activity using the procedures described in Example B. The plasma membrane preparation of a 7-transmembrane-G-protein coupled receptor (GPCR) contains not only the receptor but also the G-proteins which constitute the first step in the intracellular signal transduction process when the receptor is activated by an agonist ligand. […] Agonist activation of a GPCR is accompanied by displacement of GDP by GTP from this site. Thus, measurement of the binding of a radiolabelled ligand, namely [^35 S]-GTPγS, for this binding site constitutes a measure of agonist potency for a given ligand. For agonism at the C1a receptor, a similar membrane preparation to that described below for the C1a binding studies is used. C1a pcDNA construction and transfection were carried out as previously described (Albrandt et al. 1993, FEBS Letters, 325:225-232). HEK293 cell lines showing stable expression of the rat C1a-type calcitonin receptor (C1a/293) or the human C1a-type calcitonin receptor (1154/293) were selected by G418 resistance and limiting dilution culture methods. Plasma membranes were collected from homogenized HEK293 cells and used in the [^35 S]-GTPγS assay. Individual test peptides at concentrations spanning 6 log units starting at around […] were examined for their ability to bind [^35 S]-GTPγS. Maximum agonist-specific binding was measured in the presence of 1 μM human calcitonin, constitutive binding was measured in the presence of buffer alone. Peptide potencies (EC50 's for concentration response curves) were calculated by non-linear regression using Prism™ (version 2.01, GraphPAD Software, San Diego, Calif.).
[^35 S]-GTPγS C1a Agonist Studies
Evaluation of the agonist activity of compounds versus the C1a receptor was carried out as follows:
as §1
as §2, with “1993, FEBS Letters, 325:225-232).” for “1993).”
as §3
Assay buffer contained 1 μM GDP, 1 mM EDTA, 5 mM MgCl2, 20 mM Hepes, and 150 mM NaCl, pH 7.4. Membranes (7.5 μg membrane protein/well), [^35 S]-GTPγS (200 pM), and peptides were combined in 200 μL buffer in 96-well microtiter plates. After a 75 minute incubation at room temperature, well contents were harvested onto GF/B glass fiber pads using a Tomtec Mach II plate harvestor (Hamden, Conn.). Dried pads were combined with scintillant and counted on a Wallac LKB Beta Plate scintillation counter. For concentration response curves, samples were run in duplicate over a 6 log concentration range starting at 10^-6 M or 10^-7 M. Maximum agonist-specific binding was measured in the presence of 1 μM human calcitonin, constitutive binding was measured in the presence of buffer alone.
Peptide potencies (1C50 's for competitive binding, and EC50 's for concentration response curves) were calculated by non-linear regression using Prism (version 2.01, GraphPAD Software, San Diego, Calif.).

SMILES	IC50 [1] [nM]	EC50 [2] [nM]
CC(C)C[C@H](NC(=O)[C@H](CCCNC(=N)N)NC(=O)[C@H](CCC(N)=O)NC(=O)[C@@H](NC(=O)[C@H](C)NC(=O)[C@@H]1CSSC[C@H](NC(=O)[C@@H](N)CCCCN)C(=O)N[C@@H](CC(N)=O)C(=O)N[C@@H]([C@@H](C)O)C(=O)N[C@@H](C)C(=O)N[C@@H]([C@@H](C)O)C(=O)N1)[C@@H](C)O)C(=O)N[C@@H](C)C(=O)N[C@@H](CC(N)=O)C(=O)N[C@@H](Cc1ccccc1)C(=O)N[C@@H](CC(C)C)C(=O)N[C@H](C(=O)N[C@@H](C)C(=O)N[C@@H](CO)C(=O)N[C@@H](CO)C(=O)NCC(=O)N[C@@H](Cc1ccc(O)cc1)C(N)=O)C(C)C [Example 12] (H-KCNTATCATQRLANFLVASSGY-NH2; disulfide 2-7)	10	8
CC(C)C[C@H](NC(=O)[C@H](CCCNC(=N)N)NC(=O)[C@H](CCC(N)=O)NC(=O)[C@@H](NC(=O)[C@H](C)NC(=O)[C@@H]1CSSC[C@H](N)C(=O)N[C@@H](CC(N)=O)C(=O)N[C@@H]([C@@H](C)O)C(=O)N[C@@H](C)C(=O)N[C@@H]([C@@H](C)O)C(=O)N1)[C@@H](C)O)C(=O)N[C@@H](C)C(=O)N[C@@H](CC(N)=O)C(=O)N[C@@H](Cc1ccccc1)C(=O)N[C@@H](CC(C)C)C(=O)N[C@H](C(=O)N[C@@H](CCCNC(=N)N)C(=O)N[C@@H](CO)C(=O)N[C@@H](CO)C(=O)NCC(=O)N[C@@H](Cc1ccc(O)cc1)C(N)=O)C(C)C [Example 13] (H-CNTATCATQRLANFLVRSSGY-NH2; disulfide 1-6)	12	19
CC(C)C[C@H](NC(=O)[C@H](CCCNC(=N)N)NC(=O)[C@H](CCC(N)=O)NC(=O)[C@@H](NC(=O)[C@H](C)NC(=O)[C@@H]1CSSC[C@H](NC(=O)[C@@H](N)CCCCN)C(=O)N[C@@H](CC(N)=O)C(=O)N[C@@H]([C@@H](C)O)C(=O)N[C@@H](C)C(=O)N[C@@H]([C@@H](C)O)C(=O)N1)[C@@H](C)O)C(=O)N[C@@H](C)C(=O)N[C@@H](CC(N)=O)C(=O)N[C@@H](Cc1ccccc1)C(=O)N[C@@H](CC(C)C)C(=O)N[C@H](C(=O)N[C@@H](CCCNC(=N)N)C(=O)N[C@@H](CO)C(=O)N[C@@H](CO)C(=O)NCC(=O)N[C@@H](Cc1ccc(O)cc1)C(N)=O)C(C)C [Example 14] (H-KCNTATCATQRLANFLVRSSGY-NH2; disulfide 2-7)	18	90
CC(C)C[C@H](NC(=O)[C@H](CCCNC(=N)N)NC(=O)[C@H](CCC(N)=O)NC(=O)[C@@H](NC(=O)[C@H](C)NC(=O)[C@@H]1CSSC[C@H](NC(=O)[C@@H](N)CCCCN)C(=O)N[C@@H](CC(N)=O)C(=O)N[C@@H]([C@@H](C)O)C(=O)N[C@@H](C)C(=O)N[C@@H]([C@@H](C)O)C(=O)N1)[C@@H](C)O)C(=O)N[C@@H](C)C(=O)N[C@@H](CC(N)=O)C(=O)N[C@@H](Cc1ccccc1)C(=O)N[C@@H](CC(C)C)C(=O)N[C@H](C(=O)N[C@@H](CCCNC(=N)N)C(=O)N[C@@H](CO)C(=O)N[C@@H](C)C(=O)NCC(=O)N[C@@H](Cc1ccc(O)cc1)C(N)=O)C(C)C [Example 15] (H-KCNTATCATQRLANFLVRSAGY-NH2; disulfide 2-7)	18	21
CC(C)C[C@H](NC(=O)[C@H](Cc1ccccc1)NC(=O)[C@H](CC(N)=O)NC(=O)[C@H](C)NC(=O)[C@H](CC(C)C)NC(=O)[C@H](CCCNC(=N)N)NC(=O)[C@H](CCC(N)=O)NC(=O)[C@@H](NC(=O)[C@H](C)NC(=O)[C@@H]1CSSC[C@H](NC(=O)[C@@H](N)CCCCN)C(=O)N[C@@H](CC(N)=O)C(=O)N[C@@H]([C@@H](C)O)C(=O)N[C@@H](C)C(=O)N[C@@H]([C@@H](C)O)C(=O)N1)[C@@H](C)O)C(=O)N[C@@H](C)C(=O)N[C@@H](CCCNC(=N)N)C(=O)N[C@@H](CO)C(=O)N[C@@H](CO)C(=O)NCC(=O)N[C@@H](Cc1ccc(O)cc1)C(N)=O [Example 16] (H-KCNTATCATQRLANFLARSSGY-NH2; disulfide 2-7)	20	1.4

Reference: patent US6087334A, “Anti-diabetic peptides” (Amylin Pharmaceuticals, Inc., priority 1998, dated 2000)
